{"source": "ChEMBL document CHEMBL4138283", "about": "“Cyclizidine-Type Alkaloids from Streptomyces sp. HNA39” (J Nat Prod, 2018)", "key": {"[1]": {"system": "HCT-116", "assay": "Cytotoxicity against human HCT116 cells by sulforhodamine B assay", "type": "functional, cell-based"}, "[2]": {"system": "PC-3", "assay": "Cytotoxicity against human PC3 cells by sulforhodamine B assay", "type": "functional, cell-based"}, "[3]": {"biological_target": "Rho-associated protein kinase 2 (Homo sapiens, UniProt O75116)", "sequence (O75116 whole entry)": "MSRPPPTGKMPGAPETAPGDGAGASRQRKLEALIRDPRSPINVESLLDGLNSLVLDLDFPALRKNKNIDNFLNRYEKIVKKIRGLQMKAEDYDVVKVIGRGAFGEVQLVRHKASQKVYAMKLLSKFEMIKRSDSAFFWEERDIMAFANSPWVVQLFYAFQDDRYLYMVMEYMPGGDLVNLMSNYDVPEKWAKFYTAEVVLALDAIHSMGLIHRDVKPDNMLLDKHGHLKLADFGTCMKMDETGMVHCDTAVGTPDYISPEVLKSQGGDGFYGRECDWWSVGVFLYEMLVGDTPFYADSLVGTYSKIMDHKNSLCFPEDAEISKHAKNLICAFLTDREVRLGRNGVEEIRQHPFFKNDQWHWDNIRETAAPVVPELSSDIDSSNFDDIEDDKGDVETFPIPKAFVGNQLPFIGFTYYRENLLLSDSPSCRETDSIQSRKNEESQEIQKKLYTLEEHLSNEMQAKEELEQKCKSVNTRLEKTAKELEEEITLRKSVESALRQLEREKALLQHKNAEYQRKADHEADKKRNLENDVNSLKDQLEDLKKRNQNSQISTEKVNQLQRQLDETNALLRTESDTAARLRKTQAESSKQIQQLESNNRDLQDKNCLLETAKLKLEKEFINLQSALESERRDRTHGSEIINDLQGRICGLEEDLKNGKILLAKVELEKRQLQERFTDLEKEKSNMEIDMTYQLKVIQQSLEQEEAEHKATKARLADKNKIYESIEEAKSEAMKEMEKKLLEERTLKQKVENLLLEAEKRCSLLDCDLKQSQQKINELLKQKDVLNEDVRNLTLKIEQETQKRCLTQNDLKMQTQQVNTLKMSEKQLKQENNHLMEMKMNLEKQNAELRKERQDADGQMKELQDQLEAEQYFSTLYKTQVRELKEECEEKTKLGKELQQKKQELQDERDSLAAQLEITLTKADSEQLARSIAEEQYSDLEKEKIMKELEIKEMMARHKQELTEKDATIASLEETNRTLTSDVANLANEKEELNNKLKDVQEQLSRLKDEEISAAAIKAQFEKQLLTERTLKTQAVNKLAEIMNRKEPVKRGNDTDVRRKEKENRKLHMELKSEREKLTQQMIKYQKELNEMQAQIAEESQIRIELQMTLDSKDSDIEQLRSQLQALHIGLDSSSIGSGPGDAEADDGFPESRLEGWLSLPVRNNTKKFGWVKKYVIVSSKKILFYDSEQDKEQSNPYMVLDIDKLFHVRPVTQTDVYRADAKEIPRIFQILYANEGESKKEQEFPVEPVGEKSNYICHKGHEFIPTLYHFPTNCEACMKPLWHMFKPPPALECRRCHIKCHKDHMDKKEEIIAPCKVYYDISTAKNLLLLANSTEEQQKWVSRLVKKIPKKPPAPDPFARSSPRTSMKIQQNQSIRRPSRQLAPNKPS", "assay": "Inhibition of ROCK2 (unknown origin) using SKT S2 as substrate measured after 30 mins by HTRF assay"}}}
{"smiles": "CC(/C=C/C1CC1)=C\\[C@H]1[C@H](O)[C@@](C)(O)[C@H]2[C@H](O)[C@@H](O)CCN12", "values": [{"measurement": "IC50", "setting": "[1]", "value": 8.3, "unit": "µM"}, {"measurement": "IC50", "setting": "[2]", "value": 0.52, "unit": "µM"}, {"measurement": "IC50", "setting": "[3]", "value": 7, "unit": "µM"}]}
{"smiles": "CC(/C=C/C1CC1)=C\\[C@H]1[C@H](O)[C@@](C)(O)c2c(O)ccc[n+]21", "values": [{"measurement": "IC50", "setting": "[1]", "value": "> 40", "unit": "µM"}, {"measurement": "IC50", "setting": "[2]", "value": "> 40", "unit": "µM"}, {"measurement": "IC50", "setting": "[3]", "value": 27, "unit": "µM"}]}
{"smiles": "CC(/C=C/C1CC1)=C\\[C@H]1[C@H](O)[C@@](C)(O)[C@H]2[C@H](O)[C@@H](Cl)CCN12", "values": [{"measurement": "IC50", "setting": "[1]", "value": 40, "unit": "µM"}, {"measurement": "IC50", "setting": "[2]", "value": 33, "unit": "µM"}, {"measurement": "IC50", "setting": "[3]", "value": "> 100", "unit": "µM"}]}
{"smiles": "C/C(=C\\C=C\\CCO)C[C@H]1[C@H](O)[C@@](C)(O)[C@H]2[C@H](O)[C@@H](Cl)CCN12", "values": [{"measurement": "IC50", "setting": "[1]", "value": "> 40", "unit": "µM"}, {"measurement": "IC50", "setting": "[2]", "value": 17, "unit": "µM"}, {"measurement": "IC50", "setting": "[3]", "value": 42, "unit": "µM"}]}
{"smiles": "CC(/C=C/C1CC1)=C\\[C@H]1[C@H](O)[C@@](C)(O)[C@H]2CCCCN12", "values": [{"measurement": "IC50", "setting": "[1]", "value": "> 40", "unit": "µM"}, {"measurement": "IC50", "setting": "[2]", "value": "> 40", "unit": "µM"}, {"measurement": "IC50", "setting": "[3]", "value": "> 100", "unit": "µM"}]}
{"smiles": "C/C(=C\\C=C\\CCO)C[C@H]1[C@H](O)[C@@](C)(O)[C@H]2CCCCN12", "values": [{"measurement": "IC50", "setting": "[1]", "value": "> 40", "unit": "µM"}, {"measurement": "IC50", "setting": "[2]", "value": "> 40", "unit": "µM"}, {"measurement": "IC50", "setting": "[3]", "value": "> 100", "unit": "µM"}]}
{"smiles": "CC(/C=C/C1CC1)=C\\[C@H]1[C@H](O)[C@@](C)(O)[C@H]2[C@@H]3O[C@@H]3CCN12", "values": [{"measurement": "IC50", "setting": "[1]", "value": 28, "unit": "µM"}, {"measurement": "IC50", "setting": "[2]", "value": 23, "unit": "µM"}, {"measurement": "IC50", "setting": "[3]", "value": "> 100", "unit": "µM"}]}
{"smiles": "CC(/C=C/C1CC1)=C\\[C@H]1[C@H](O)[C@@](C)(O)c2cccc[n+]21", "values": [{"measurement": "IC50", "setting": "[1]", "value": "> 40", "unit": "µM"}, {"measurement": "IC50", "setting": "[2]", "value": "> 40", "unit": "µM"}, {"measurement": "IC50", "setting": "[3]", "value": "> 100", "unit": "µM"}]}
{"smiles": "C/C(=C/C=C/CCO)C[C@H]1[C@H](O)[C@@](C)(O)[C@H]2[C@H](O)[C@@H](Cl)CCN12", "values": [{"measurement": "IC50", "setting": "[1]", "value": "> 40", "unit": "µM"}, {"measurement": "IC50", "setting": "[2]", "value": "> 40", "unit": "µM"}, {"measurement": "IC50", "setting": "[3]", "value": 39, "unit": "µM"}]}
{"smiles": "CN[C@@H]1C[C@H]2O[C@@](C)([C@@H]1OC)n1c3ccccc3c3c4c(c5c6ccccc6n2c5c31)C(=O)NC4", "note": "[STAUROSPORINE]", "values": [{"measurement": "IC50", "setting": "[2]", "value": 0.017, "unit": "µM"}]}
